Data from US20250171426A1, “PYRIMIDINEDIONE-BASED COMPOUNDS AS AXL, C-MET, AND MER INHIBITORS AND METHODS OF USE THEREOF” (CMG Pharmaceutical Co., Ltd., priority 2022, published 2025).

Legend:
Format in all cases: biochemical
Details in all cases: 10 μM ATP, 60 min, ADP-GLO luminescence
c-MET = c-MET (Homo sapiens, UniProt P08581); assay: Enzymatic assay (ADP-Glo kinase reaction), c-MET
Method: (§1) All the kinase reactions were performed in 5 μL using tyrosine kinase buffer with 0.2 μg/μL poly (Glu4, Tyr1) substrate, 10 μM ATP, serial dilution of the inhibitor, and incubated at room temperature for 60 min. After the indicated incubation times, 5 μL ADP-GLO™ reagent (Promega, Madison, WI) was added to the reactions and the plate was incubated at room temperature for 40 min. […] All 384-well assay plates were read using a GLOMAX™ Discover Microplate Luminometer from Promega (Madison, WI). To plot, analyze the data and calculate all kinase reaction biochemical values, both Microsoft Excel and Prism from GraphPad 7 Software (La Jolla, CA) were used.

AXL = target: T1, AXL (Homo sapiens, UniProt P30530); assay: Enzymatic assay (ADP-Glo kinase reaction), AXL
T1 sequence (P30530 26-894): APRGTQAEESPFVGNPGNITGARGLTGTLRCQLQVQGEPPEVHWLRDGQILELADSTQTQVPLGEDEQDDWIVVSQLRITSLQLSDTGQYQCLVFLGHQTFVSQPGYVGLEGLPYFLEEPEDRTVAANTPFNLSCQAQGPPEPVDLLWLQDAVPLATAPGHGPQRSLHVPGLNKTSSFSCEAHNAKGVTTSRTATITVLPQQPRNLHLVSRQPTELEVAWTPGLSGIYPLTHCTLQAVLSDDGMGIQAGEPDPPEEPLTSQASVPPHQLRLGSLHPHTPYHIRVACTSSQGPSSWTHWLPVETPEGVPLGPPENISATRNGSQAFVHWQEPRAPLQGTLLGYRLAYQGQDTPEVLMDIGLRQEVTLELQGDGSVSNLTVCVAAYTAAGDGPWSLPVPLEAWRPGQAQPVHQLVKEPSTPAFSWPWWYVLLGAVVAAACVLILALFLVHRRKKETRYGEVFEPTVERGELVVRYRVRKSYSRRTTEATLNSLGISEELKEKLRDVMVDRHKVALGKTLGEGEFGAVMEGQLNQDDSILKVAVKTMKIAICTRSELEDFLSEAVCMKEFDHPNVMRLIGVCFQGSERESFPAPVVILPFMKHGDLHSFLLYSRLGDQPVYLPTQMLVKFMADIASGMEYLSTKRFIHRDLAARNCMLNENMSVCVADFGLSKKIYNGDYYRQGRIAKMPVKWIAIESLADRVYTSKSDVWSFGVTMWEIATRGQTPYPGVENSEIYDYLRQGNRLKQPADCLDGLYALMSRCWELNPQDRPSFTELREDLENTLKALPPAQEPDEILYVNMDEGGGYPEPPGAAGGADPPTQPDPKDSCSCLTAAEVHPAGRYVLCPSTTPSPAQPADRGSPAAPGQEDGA
Method: as §1

MER = target: T2, MER (Homo sapiens, UniProt Q12866); assay: Enzymatic assay (ADP-Glo kinase reaction), MER
T2 sequence (Q12866 21-999): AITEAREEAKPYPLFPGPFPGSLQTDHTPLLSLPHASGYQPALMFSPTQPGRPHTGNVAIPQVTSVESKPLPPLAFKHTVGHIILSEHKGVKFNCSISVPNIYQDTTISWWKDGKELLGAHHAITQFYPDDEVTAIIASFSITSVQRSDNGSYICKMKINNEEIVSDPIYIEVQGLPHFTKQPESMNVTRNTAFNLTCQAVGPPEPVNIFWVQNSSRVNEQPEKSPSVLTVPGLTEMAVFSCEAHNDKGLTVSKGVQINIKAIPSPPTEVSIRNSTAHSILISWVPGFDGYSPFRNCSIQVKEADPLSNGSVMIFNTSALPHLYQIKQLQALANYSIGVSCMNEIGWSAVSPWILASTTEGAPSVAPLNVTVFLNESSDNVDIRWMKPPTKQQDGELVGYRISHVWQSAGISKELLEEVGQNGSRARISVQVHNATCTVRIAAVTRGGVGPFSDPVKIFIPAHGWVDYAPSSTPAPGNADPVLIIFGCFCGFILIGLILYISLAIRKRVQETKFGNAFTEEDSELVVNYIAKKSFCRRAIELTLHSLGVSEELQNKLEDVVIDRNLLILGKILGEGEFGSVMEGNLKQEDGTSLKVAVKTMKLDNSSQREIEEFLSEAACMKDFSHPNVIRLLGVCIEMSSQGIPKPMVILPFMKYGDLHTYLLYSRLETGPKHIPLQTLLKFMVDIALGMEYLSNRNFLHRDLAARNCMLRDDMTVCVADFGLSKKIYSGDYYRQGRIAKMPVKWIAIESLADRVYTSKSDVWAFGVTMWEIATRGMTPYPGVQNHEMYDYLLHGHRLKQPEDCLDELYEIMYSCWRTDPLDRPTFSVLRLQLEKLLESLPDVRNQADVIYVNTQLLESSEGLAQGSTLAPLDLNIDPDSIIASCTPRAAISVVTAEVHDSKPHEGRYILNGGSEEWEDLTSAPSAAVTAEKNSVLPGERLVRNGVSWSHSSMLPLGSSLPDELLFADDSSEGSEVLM
Method: (§2) All the kinase reactions were performed in 5 μL using tyrosine kinase buffer with 0.2 μg/μL poly (Glu4, Tyr1) substrate, 10 μM ATP, serial dilution of the inhibitor, and incubated at room temperature for 60 min. After the indicated incubation times, 5 μL ADP-GLO™ reagent (Promega, Madison, WI) was added to the reactions and the plate was incubated at room temperature for 40 min. Then, 10 μL of kinase detection reagent was added and after an incubation time of 40 min, luminescence was recorded and IC50 values were determined (Table 1). All 384-well assay plates were read using a GLOMAX™ Discover Microplate Luminometer from Promega (Madison, WI). To plot, analyze the data and calculate all kinase reaction biochemical values, both Microsoft Excel and Prism from GraphPad 7 Software (La Jolla, CA) were used.
as §2, with “3).” for “1).”

Sequence of c-MET (P08581 25-1390): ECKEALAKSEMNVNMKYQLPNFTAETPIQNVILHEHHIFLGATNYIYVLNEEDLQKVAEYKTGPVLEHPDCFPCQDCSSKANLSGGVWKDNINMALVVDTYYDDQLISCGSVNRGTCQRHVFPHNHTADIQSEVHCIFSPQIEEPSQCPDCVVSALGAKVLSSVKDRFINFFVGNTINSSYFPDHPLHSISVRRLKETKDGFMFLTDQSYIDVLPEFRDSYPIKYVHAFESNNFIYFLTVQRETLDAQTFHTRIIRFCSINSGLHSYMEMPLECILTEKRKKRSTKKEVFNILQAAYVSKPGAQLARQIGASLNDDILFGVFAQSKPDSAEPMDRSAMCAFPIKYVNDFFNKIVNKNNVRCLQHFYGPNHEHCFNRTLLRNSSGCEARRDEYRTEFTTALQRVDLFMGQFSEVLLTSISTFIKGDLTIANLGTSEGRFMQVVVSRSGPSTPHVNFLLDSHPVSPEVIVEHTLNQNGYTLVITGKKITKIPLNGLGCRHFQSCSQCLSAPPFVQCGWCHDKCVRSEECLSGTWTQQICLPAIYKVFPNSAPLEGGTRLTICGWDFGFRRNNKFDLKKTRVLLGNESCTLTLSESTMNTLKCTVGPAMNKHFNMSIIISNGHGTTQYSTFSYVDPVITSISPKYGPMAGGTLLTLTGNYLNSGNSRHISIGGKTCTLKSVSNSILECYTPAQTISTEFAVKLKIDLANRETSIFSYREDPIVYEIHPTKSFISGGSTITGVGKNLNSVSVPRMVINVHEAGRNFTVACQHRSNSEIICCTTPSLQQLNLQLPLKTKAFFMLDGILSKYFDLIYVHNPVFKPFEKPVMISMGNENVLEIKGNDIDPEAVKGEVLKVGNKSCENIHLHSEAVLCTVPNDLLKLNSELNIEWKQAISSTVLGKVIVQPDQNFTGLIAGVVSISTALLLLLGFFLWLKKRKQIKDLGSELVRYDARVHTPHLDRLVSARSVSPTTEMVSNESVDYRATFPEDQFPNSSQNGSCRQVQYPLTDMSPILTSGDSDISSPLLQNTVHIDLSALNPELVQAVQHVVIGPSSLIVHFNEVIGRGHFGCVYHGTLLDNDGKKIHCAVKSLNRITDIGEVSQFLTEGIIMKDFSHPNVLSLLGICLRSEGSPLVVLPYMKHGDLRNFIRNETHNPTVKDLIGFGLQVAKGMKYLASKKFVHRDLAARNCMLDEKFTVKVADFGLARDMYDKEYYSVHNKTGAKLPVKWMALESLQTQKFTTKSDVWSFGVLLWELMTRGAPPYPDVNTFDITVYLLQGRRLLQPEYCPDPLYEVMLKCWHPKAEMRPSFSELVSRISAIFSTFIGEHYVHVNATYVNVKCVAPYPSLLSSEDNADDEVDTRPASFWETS

Compound	IC50 (c-MET) [nM]	IC50 (AXL) [nM]	IC50 (MER) [nM]
CN1CCC(CC#Cc2c(Oc3ccc(NC(=O)c4cn(CC(=O)N(C)C)c(=O)n(-c5ccc(F)cc5)c4=O)cc3F)ccnc2N)CC1 [Example 37, N-(4-((2-amino-3-(3-(1-methylpiperidin-4-yl)prop-1-yn-1-yl)pyridin-4-yl)oxy)-3-fluorophenyl)-1-(2-(dimethylamino)-2-oxoethyl)-3-(4-fluorophenyl)-2,4-dioxo-1,2,3,4-tetrahydropyrimidine-5-carboxamide]	< 10000	< 100	< 10
CC(C)n1cc(C(=O)Nc2ccc(Oc3ccnc(N)c3-c3cnn(C)c3)c(F)c2)c(=O)n(-c2ccc(F)cc2)c1=O [Example 7]	< 10	< 10	< 100
CC(C)n1cc(C(=O)Nc2ccc(Oc3ccnc(N)c3C#CCN3CCNCC3)c(F)c2)c(=O)n(-c2ccc(F)cc2)c1=O [Example 17]	< 10	< 10	< 10
Cc1nc(Cn2cc(C(=O)Nc3ccc(Oc4ccnc(N)c4C#CC(C)(C)N4CCOCC4)c(F)c3)c(=O)n(-c3ccc(F)cc3)c2=O)cs1 [Example 39, N-(4-((2-amino-3-(3-methyl-3-morpholinobut-1-yn-1-yl)pyridin-4-yl)oxy)-3-fluorophenyl)-3-(4-fluorophenyl)-1-((2-methylthiazol-4-yl)methyl)-2,4-dioxo-1,2,3,4-tetrahydropyrimidine-5-carboxamide]	< 100	< 100	< 100
COCCN1CCN(C(=O)CCc2c(Oc3ccc(NC(=O)c4cn(C(C)C)c(=O)n(-c5ccc(F)cc5)c4=O)cc3F)ccnc2N)CC1 [Example 21, N-(4-(2-amino-3-(3-(4-(2-methoxyethyl)piperazin-1-yl)-3-oxopropyl)pyridin-4-yloxy)-3-fluorophenyl)-3-(4-fluorophenyl)-1-isopropyl-2,4-dioxo-1,2,3,4-tetrahydropyrimidine-5-carboxamide]	< 10000	< 1000	< 1000
CC(C)n1cc(C(=O)Nc2ccc(Oc3ccnc(N)c3-c3ccc(Oc4ccccc4)cc3)c(F)c2)c(=O)n(-c2ccc(F)cc2)c1=O [Example 10]	< 10000	< 100	< 10
COCCN1CCN(C(C)(C)C#Cc2c(Oc3ccc(NC(=O)c4cn(C(C)C)c(=O)n(-c5ccc(F)cc5)c4=O)cc3F)ccnc2N)CC1 [Example 20, N-(4-(2-amino-3-(3-(4-(2-methoxyethyl)piperazin-1-yl)-3-methylbut-1-ynyl)pyridin-4-yloxy)-3-fluorophenyl)-3-(4-fluorophenyl)-1-isopropyl-2,4-dioxo-1,2,3,4-tetrahydropyrimidine-5-carboxamide]	< 10	< 10	< 10
CN(C)C(=O)Cn1cc(C(=O)Nc2ccc(Oc3ccnc(N)c3C#CCN3CCOCC3)c(F)c2)c(=O)n(-c2ccc(F)cc2)c1=O [Example 34, N-(4-((2-amino-3-(3-morpholinoprop-1-yn-1-yl)pyridin-4-yl)oxy)-3-fluorophenyl)-1-(2-(dimethylamino)-2-oxoethyl)-3-(4-fluorophenyl)-2,4-dioxo-1,2,3,4-tetrahydropyrimidine-5-carboxamide]	< 10000	< 1000	< 100
CC(C)n1cc(C(=O)Nc2ccc(Oc3ccnc(N)c3C#CCN3CCOCC3)c(F)c2)c(=O)n(-c2ccc(F)cc2)c1=O [Example 24, N-(4-(2-amino-3-(3-morpholinoprop-1-ynyl)pyridin-4-yloxy)-3-fluorophenyl)-3-(4-fluorophenyl)-1-isopropyl-2,4-dioxo-1,2,3,4-tetrahydropyrimidine-5-carboxamide]	< 10	< 10	
CC(C)n1cc(C(=O)Nc2ccc(Oc3ccnc(N)c3Cl)c(F)c2)c(=O)n(-c2ccc(F)cc2)c1=O [Example 6, N-(4-(2-amino-3-chloropyridin-4-yloxy)-3-fluorophenyl)-3-(4-fluorophenyl)-1-isopropyl-2,4-dioxo-1,2,3,4-tetrahydropyrimidine-5-carboxamide]			< 100

Now from value to molecule:

IC50 (c-MET) [nM]	IC50 (AXL) [nM]	IC50 (MER) [nM]	Compound
< 10	< 10	< 10	Cc1nc(Cn2cc(C(=O)Nc3ccc(Oc4ccnc(N)c4C#CCC4CCN(C)CC4)c(F)c3)c(=O)n(-c3ccc(F)cc3)c2=O)cs1 [Example 43, N-(4-((2-amino-3-(3-(1-methylpiperidin-4-yl)prop-1-yn-1-yl)pyridin-4-yl)oxy)-3-fluorophenyl)-3-(4-fluorophenyl)-1-((2-methylthiazol-4-yl)methyl)-2,4-dioxo-1,2,3,4-tetrahydropyrimidine-5-carboxamide]
< 1000	< 100	< 100	C=CCn1cc(C(=O)Nc2ccc(Oc3ccnc(N)c3C#CCC3CCN(C)CC3)c(F)c2)c(=O)n(CC=C)c1=O [Example 69, 1,3-diallyl-N-(4-(2-amino-3-(3-(1-methylpiperdin-4-yl)prop-1-ynyl)pyridin-4-yloxy)-3-fluorophenyl)-2,4-dioxo-1,2,3,4-tetrahydropyrimidine-5-carboxamide]
< 100	< 10	< 10	C=CCn1cc(C(=O)Nc2ccc(Oc3ccnc(N)c3C#CCN3CCOCC3)c(F)c2)c(=O)n(CC=C)c1=O [Example 67, 1,3-diallyl-N-(4-(2-amino-3-(3-morpholinoprop-1-ynyl)pyridin-4-yloxy)-3-fluorophenyl)-2,4-dioxo-1,2,3,4-tetrahydropyrimidine-5-carboxamide]
< 100	< 100	< 100	Cc1nc(Cn2cc(C(=O)Nc3ccc(Oc4ccnc(N)c4C#CC(C)(C)N4CCNCC4)c(F)c3)c(=O)n(-c3ccc(F)cc3)c2=O)cs1 [Example 41, N-(4-((2-amino-3-(3-methyl-3-(piperazin-1-yl)but-1-yn-1-yl)pyridin-4-yl)oxy)-3-fluorophenyl)-3-(4-fluorophenyl)-1-((2-methylthiazol-4-yl)methyl)-2,4-dioxo-1,2,3,4-tetrahydropyrimidine-5-carboxamide]
